Laboratory results from patent publication US12162889B2, “Luminogens for biological applications” (THE HONG KONG UNIVERSITY OF SCIENCE AND TECHNOLOGY, priority 2016, dated 2024).
Values belong to the compound of their own block, whether it stands above or below them.

Legend:
HeLa cells = experiment: Cell imaging of living HeLa cells with AIE dots; type: cell-based; settings: dye as AIE dots, 12 h, 37° C.
Description: Generally, 1 mg of the AIEgen and 5 mg of DSPE-PEG-Biotin were dissolved in 1 mL of chloroform. Subsequently, 9 mL of Milli-Q water was added into the chloroform solution under sonication for 10 minutes at room temperature using a microtip probe sonicator with an 18 W output (XL2000, Misonix Incorp., USA). The mixture was stirred in the nitrogen flow overnight until the chloroform was completely evaporated. A clear solution was obtained, and the solution was filtered through a 0.45 μm microfilter to result in the formation of AIE dots.
Cell Culture: HeLa cells were cultured in MEM containing 10% FBS and antibiotics (100 units/mL penicillin and 100 µg/mL streptomycin) in a 5% CO2 humidity incubator at 37° C. All culture media were supplemented with 10% heat-inactivated FBS, 100 units/mL penicillin, and 100 μg/mL streptomycin. Before the experiment, the cells were precultured until confluence was reached.
Cell Imaging: HeLa cells were grown overnight on a 35 mm petri dish with a cover slip at 37° C. After removal of the medium, the adherent cells were washed twice with 1× phosphate buffered saline (PBS) buffer. The AIE dots were then added to the chamber. After incubation for 12 hours, the cells were washed three times with 1×PBS buffer. The cells were imaged on a Zeiss laser scanning confocal microscope and analyzed using ZEN 2009 software.

Two-photon absorption = type: physicochemical
From the text: The TPA spectrum of AIE dots in water with the wavelength range from 800-1000 nm at 20 nm intervals was investigated. […] Moreover, a 900 nm fs laser expects to have deeper penetration and better focusing capability than the commonly used 770-860 nm Ti:Sapphire fs laser. Therefore, the TTS dots are a promising candidate for two-photon deep-tissue in vivo bioimaging.

[1] = Absorption spectra in solvents / aqueous media; type: physicochemical
From the text: With introduction of extra arylamine units to the TTB molecule, the absorption peak of TTS is slightly red-shifted due to longer electronic conjugation.
(§1) Due to the higher ΦF and much better processability of TTS, it was chosen for further biological applications. For easy dispersion of the highly hydrophobic TTS molecules in an aqueous environment, the TTS dots were formulated through a simple procedure by a nanoprecipitation method with amphiphilic and biocompatible 1,2-distearoyl-sn-glycero-3-phosphoethanolamine-N [methoxy(polyethyleneglycol)-2000] (DSPE-PEG 2000) as the encapsulation matrix (FIG. 70). […] TTS dots have an absorption maxima at 497 nm in aqueous media, which fits well with the commercial laser excitation at 488 nm. The strong emission of TTS dots (FIG. 71B) peaks at the red region (630 nm) and tails to the near-infrared region (820 nm). It is noteworthy that the Stokes shift of the TTS dots is big enough (>130 nm) to solve the serious problem of the self-quenching effect common in conventional organic dye molecules.

[2] = Fluorescence quantum yield and lifetime; type: physicochemical
[3] = Energy band gap and HOMO/LUMO from absorption onset and onset oxidation potential; type: physicochemical
[4] = Photoluminescence (emission) spectra in solvents, THF/water aggregates, powder and dots; type: physicochemical
From the text: The photoluminescence (PL) spectrum of TTS (FIG. 66) is basically a flat line parallel to the abscissa in pure THF. The spectral pattern remains unchanged at water content up to 40%. Afterwards, the PL intensity increases dramatically. The higher the water fraction, the stronger the emission intensity. The emission peak reaches to ˜636 nm. The emission intensity reaches its maximum value at 90% water content, which is 170-fold higher than that in pure THF
When the solvent polarity was increased from Tol to NMP, the emission of TTB, TTA, and TTS are red-shifted with an emission quenching effect. […] However, compared with TTB molecule, TTA and TTS molecules are more sensitive to solvent polarity. TTA and TTS are emissive in Tol, weak emissive in DO and nonemissive in THF with medium polarity. In contrast, TTB is highly emissive in Tol, DO, and THF, and even in the high polarity solvent NMP, TTB is still emissive observed by the naked eye. […] It is probable that even in THF with medium polarity, the conformation of the TTA or TTS becomes twisted and the charge becomes separated.
In pure THF solution, it is non-emissive. The PL intensity remains unchanged at water fraction fw<50%. Afterwards, the PL intensity reaches its maximum value at 90% water content with emission peak at ˜635 nm. Thus, both TTS and TTA are AIE-active.
as §1

[5] = in methanol; cited from earlier work
[6] = aggregate, excitation 900 nm laser

Compound: COc1ccc(C(=C(c2ccccc2)c2ccc(-c3sc(-c4ccc(C(=C(c5ccc(OC)cc5)c5ccc(OC)cc5)c5ccccc5)cc4)c4nc(-c5ccccc5)c(-c5ccccc5)nc34)cc2)c2ccc(OC)cc2)cc1 [MTPE-TP, 5,7-bis(4-(2,2-bis(4-methoxyphenyl)-1-phenylvinyl)phenyl)-2,3-diphenylthieno[3,4-b′]pyrazine]
fluorescence in cells (HeLa cells): intense red fluorescence was observed in the cellular cytoplasms

Compound: c1ccc(-c2nc3c(-c4ccc(N(c5ccccc5)c5cccc6ccccc56)cc4)c4nsnc4c(-c4ccc(N(c5ccccc5)c5cccc6ccccc56)cc4)c3nc2-c2ccccc2)cc1 [NPB-TQ, N,N′-((6,7-diphenyl-[1,2,5]thiadiazolo[3,4-g]quinoxaline-4,9-diyl)bis(4,1-phenylene))bis(N-phenylnaphthalen-1-amine)]
two-photon absorption properties (Two-photon absorption): excellent two-photon absorption properties

Compound: CCCCCCCCN1c2ccc(-c3ccc(-c4ccc(N(c5ccccc5)c5ccccc5)cc4)c4nsnc34)cc2Sc2cc(-c3ccc(-c4ccc(N(c5ccccc5)c5ccccc5)cc4)c4nsnc34)ccc21 [PTZ-BT-TPA, 4,4′-((10-octyl-10H-phenothiazine-3,7-diyl)bis(benzo[c][1,2,5]thiadiazole-7,4-diyl))bis(N,N-diphenylaniline)]
fluorescence in cells (HeLa cells): intense red fluorescence was observed in the cellular cytoplasms | two-photon absorption properties (Two-photon absorption): excellent two-photon absorption properties

Compound: c1ccc(C(=C(c2ccccc2)c2ccc(-c3ccc(N(c4ccc(-c5ccc(C(=C(c6ccccc6)c6ccccc6)c6ccccc6)cc5)cc4)c4ccc(-c5sc(-c6ccc(N(c7ccc(-c8ccc(C(=C(c9ccccc9)c9ccccc9)c9ccccc9)cc8)cc7)c7ccc(-c8ccc(C(=C(c9ccccc9)c9ccccc9)c9ccccc9)cc8)cc7)cc6)c6c5N=S=N6)cc4)cc3)cc2)c2ccccc2)cc1 [TPE-TPA-TT, N,N′-(thieno[3,4-b][1,2,5]thiadiazole-5,7-diylbis(4,1-phenylene))bis(4′-(1,2,2-triphenylvinyl)-N-(4′-(1,2,2-triphenylvinyl)-[1,1′-biphenyl]-4-yl)-[1,1′-biphenyl]-4-amine)]
two-photon absorption properties (Two-photon absorption): excellent two-photon absorption properties

λab absorption maximum in THF ([1]; THF (Table 2)): 481 nm | λab absorption maximum ([1]; solvent DO): 478 nm | λab absorption maximum ([1]; solvent NMP): 484 nm | λab absorption maximum ([1]; solvent THF): 481 nm | λab absorption maximum ([1]; solvent Tol): 484 nm | maximum two-photon absorption cross section (Two-photon absorption; [6]): 310 GM | fluorescence quantum yield ΦF soln ([2]; THF solution, in parentheses): (0.1) % | quantum efficiency relative to rhodamine B [2, 6]: 38.5% | τ fluorescence lifetime of solid powders ([2]; solid powder): 1.86 ns | solid powders fluorescence quantum yield ΦF ([2]; solid powder, in parentheses): (34.1) % | LUMO ([3]; LUMO = HOMO + Eg): −2.84 eV | Eg energy band gap ([3]; calculated from the onset of the absorption spectrum): 2.21 eV | HOMO ([3]; calculated from the onset oxidation potential): −5.05 eV | λem emission maximum soln ([4]; THF solution): 641 | λem emission maximum aggr ([4]; THF/water mixture (1:9 by volume)): 636 | emission intensity at 90% water content relative to pure THF ([4]; THF/water, 10 μM, excitation 480 nm): 170 fold | emission peak in THF/water mixture ([4]; aggregate state, high water content (90%)): ~636 nm | λem emission maximum powder ([4]; solid powder): 636 | λem emission maximum ([4]; solvent DO, excitation 480 nm): 640 nm | λem emission maximum ([4]; solvent Tol, excitation 480 nm): 623 nm
Compound: c1ccc(C(=C(c2ccccc2)c2ccc(N(c3ccc(-c4ccc(-c5ccc(N(c6ccc(C(=C(c7ccccc7)c7ccccc7)c7ccccc7)cc6)c6ccc(N(c7ccccc7)c7ccccc7)cc6)cc5)c5nsnc45)cc3)c3ccc(N(c4ccccc4)c4ccccc4)cc3)cc2)c2ccccc2)cc1 [TTS]

Compound: CCN(CC)c1ccc2c(-c3ccccc3C(=O)O)c3ccc(=[N+](CC)CC)cc-3oc2c1.[Cl-] [rhodamine B]
ΦF of reference [5]: 41.9%
